Laboratory results: patent US8685658B2, “Compositions and methods for the treatment of diseases associated with aberrant cilia assembly and regulation” (Fox Chase Cancer Center, priority 2006, dated 2014)
pIC50: −log10 of the molar value.

Tests used:
[1] = biological target: FGFR1 (Homo sapiens, UniProt P11362); conditions: cited from earlier work
[2] = system: hTERT-RPE1 cells; assay: serum-induced ciliary disassembly in ciliated hTERT-RPE1 cells; assay type: cell-based
Description: hTERT-RPE1 cells were grown in DMEM with 10% fetal bovine serum (FBS). For analysis of ciliary disassembly, cells were plated at 30% confluence in plates containing glass cover slips, and starved for 48 hours (in Opti-MEM or regular DMEM, without added serum) to induce cilia formation, followed by treatments described hereinbelow. For siRNA treatment, cells were initially plated in DMEM/10% FBS in plates containing cover slips, and 12 hours later siRNA transfection was performed in Opti-MEM with Oligofectamine (Invitrogen) according to manufacturer recommendations, and fixed 48 hours after transfection, following treatments indicated in Results. The remaining cells on plate were lysed, then either directly analyzed by Western blot analysis, or used for immunoprecipitation (IP)-kinase reaction to measure AurA activity.
Cells were fixed with 4% paraformaldehyde (10 min) then methanol (5 min), permeabilized with 1% Triton-X100 in PBS, blocked in 1×PBS, 3% BSA, and incubated with antibodies using standard protocols. Primary antibodies included rabbit polyclonal anti-Aurora A and anti-phospho-AuroraA/T288, (Cell Signaling), mouse mAb anti-HEF1 (14A11), polyclonal anti-γ-tubulin (Sigma), anti-α-tubulin mAb (Sigma), anti-acetylated α-tubulin mAb (clone 6-11B-1, Sigma, and clone K(Ac)40 Biomol), anti-IFT88 and anti-IFT20 (gifts of G. Pazour), mouse anti-glutamylated tubulin (Sigma), and anti-HDAC6 (Upstate). Secondary antibodies labeled with Alexa-488, Alexa-568, and Alexa-633, and TOTO-3 dye to stain DNA, were from Molecular Probes/Invitrogen. DNA was co-stained in some experiments by propidium iodine (Sigma) or Draq5 (Alexis), Confocal microscopy was performed using a Radiance 2000 laser scanning confocal microscope ((Carl Zeiss, Thornwood, N.Y.) coupled to a Nikon Eclipse E800 upright microscope (Nikon). Statistical analysis of data by one-way ANOVA was performed using GraphPad Instat 3.0 (San Diego, Calif.).

[3] = biological target: T1, AurA (Homo sapiens, UniProt O14965); assay: AurA activation and HEF1 phosphorylation in serum-stimulated hTERT-RPE1 cells (Western blot); assay type: cell-based; conditions: vs DMSO, 2 and 24 hour time points after serum
T1 construct: endogenous AurA immunoprecipitated from mammalian cells; endogenous in cells; host or cells: hTERT-RPE1
T1 sequence (O14965 1-403): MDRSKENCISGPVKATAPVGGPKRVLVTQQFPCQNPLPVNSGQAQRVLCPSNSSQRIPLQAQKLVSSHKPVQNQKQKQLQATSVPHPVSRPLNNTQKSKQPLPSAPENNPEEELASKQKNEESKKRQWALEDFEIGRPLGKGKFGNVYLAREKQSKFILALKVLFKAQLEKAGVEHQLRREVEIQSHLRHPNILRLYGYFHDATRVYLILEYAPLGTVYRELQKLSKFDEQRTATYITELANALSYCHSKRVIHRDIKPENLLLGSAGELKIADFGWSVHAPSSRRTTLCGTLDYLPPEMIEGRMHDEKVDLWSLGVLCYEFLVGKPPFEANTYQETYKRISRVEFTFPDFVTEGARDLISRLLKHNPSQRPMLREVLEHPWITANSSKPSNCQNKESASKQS
Description: For microinjection, recombinant glutathione-S-transferase (GST), GST fused AurA mutants T288A and D274N) produced from BL21 (DE3) bacteria were purified using the MicroSpin GST Purification Module (Amersham Biotech.). Purified recombinant AurA was purchased from Upstate; this AurA was pre-activated based on incubation with ATP. […] To prepare lysates for Western blotting and IP, mammalian cells were disrupted by M-PER lysis buffer (Pierce) supplemented with EDTA-free protease inhibitor cocktail (Roche). Lysates used for IP were incubated overnight with antibody at 4° C., subsequently incubated for 2 hours with protein A/G-sepharose (Pierce), washed, and resolved by SDS-PAGE. Western blotting was performed using standard procedures and proteins visualized using the West-Pico system (Pierce). Antibodies used included mouse monoclonal antibody (mAb) anti-HEF1 2G9 (Pugacheva and Golemis, 2005), anti-α-tubulin mAb (Sigma), anti-AurA (BD Bioscience) for Western blotting, anti-AurA rabbit polyclonal (Cell Signaling) for IP, anti-Phospho-AurA/T288 (BioLegend), anti-Phospho-AurA/T288 (Cell Signaling), anti-HDAC6 rabbit polyclonal (Upstate; 1:5000), anti-HDAC2 rabbit polyclonal (Invitrogen) and mAb anti-β-actin (AC15, Sigma), anti-IFT88 and anti-IFT20. Secondary horseradish peroxidase (HRP)-conjugated antibodies were from Amersham Biotech. […]

[4] = biological target: T2, AurA-HDAC6 (Homo sapiens, UniProt O14965); assay: AurA-HDAC6 coimmunoprecipitation from hTERT-RPE1 cells; assay type: cell-based; conditions: pre-treatment of cells with inhibitor
T2 construct: endogenous in cells; host or cells: hTERT-RPE1
T2 sequence (O14965 1-403): T1 sequence (O14965 1-403)
T2 sequence (Q9UBN7 1-1215 partner): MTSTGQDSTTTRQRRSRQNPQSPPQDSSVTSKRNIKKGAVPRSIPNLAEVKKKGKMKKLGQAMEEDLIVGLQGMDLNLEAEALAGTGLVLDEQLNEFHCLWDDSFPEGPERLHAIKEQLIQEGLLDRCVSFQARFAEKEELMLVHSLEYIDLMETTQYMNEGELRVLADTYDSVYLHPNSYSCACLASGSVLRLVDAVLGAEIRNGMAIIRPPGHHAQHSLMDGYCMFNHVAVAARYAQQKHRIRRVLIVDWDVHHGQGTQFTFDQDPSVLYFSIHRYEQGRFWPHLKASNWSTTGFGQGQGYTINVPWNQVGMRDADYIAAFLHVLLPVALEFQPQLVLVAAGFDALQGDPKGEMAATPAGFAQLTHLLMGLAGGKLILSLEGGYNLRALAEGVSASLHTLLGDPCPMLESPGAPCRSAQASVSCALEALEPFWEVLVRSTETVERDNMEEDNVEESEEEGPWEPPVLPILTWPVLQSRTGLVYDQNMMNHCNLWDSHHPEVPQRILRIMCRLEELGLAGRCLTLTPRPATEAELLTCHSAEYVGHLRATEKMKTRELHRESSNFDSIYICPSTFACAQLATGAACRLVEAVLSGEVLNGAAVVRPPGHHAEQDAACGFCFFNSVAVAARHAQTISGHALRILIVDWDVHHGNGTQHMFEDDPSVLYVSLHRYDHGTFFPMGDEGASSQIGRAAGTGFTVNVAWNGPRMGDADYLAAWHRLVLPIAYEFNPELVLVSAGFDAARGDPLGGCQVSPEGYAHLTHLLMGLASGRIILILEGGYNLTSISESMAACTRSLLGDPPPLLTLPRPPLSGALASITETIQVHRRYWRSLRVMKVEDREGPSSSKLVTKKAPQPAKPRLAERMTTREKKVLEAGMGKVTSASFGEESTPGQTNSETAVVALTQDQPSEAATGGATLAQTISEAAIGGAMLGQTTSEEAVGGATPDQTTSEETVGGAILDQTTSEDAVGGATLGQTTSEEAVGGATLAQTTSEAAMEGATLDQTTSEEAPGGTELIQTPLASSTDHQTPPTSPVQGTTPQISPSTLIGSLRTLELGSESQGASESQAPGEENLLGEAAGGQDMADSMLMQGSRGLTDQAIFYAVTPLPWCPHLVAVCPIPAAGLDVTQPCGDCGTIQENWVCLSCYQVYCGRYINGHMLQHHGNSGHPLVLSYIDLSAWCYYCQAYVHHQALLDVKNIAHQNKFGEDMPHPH
Description: For microinjection, recombinant glutathione-S-transferase (GST), GST fused AurA mutants T288A and D274N) produced from BL21 (DE3) bacteria were purified using the MicroSpin GST Purification Module (Amersham Biotech.). Purified recombinant AurA was purchased from Upstate; this AurA was pre-activated based on incubation with ATP. […] To prepare lysates for Western blotting and IP, mammalian cells were disrupted by M-PER lysis buffer (Pierce) supplemented with EDTA-free protease inhibitor cocktail (Roche). Lysates used for IP were incubated overnight with antibody at 4° C., subsequently incubated for 2 hours with protein A/G-sepharose (Pierce), washed, and resolved by SDS-PAGE. Western blotting was performed using standard procedures and proteins visualized using the West-Pico system (Pierce). Antibodies used included mouse monoclonal antibody (mAb) anti-HEF1 2G9 (Pugacheva and Golemis, 2005), anti-α-tubulin mAb (Sigma), anti-AurA (BD Bioscience) for Western blotting, anti-AurA rabbit polyclonal (Cell Signaling) for IP, anti-Phospho-AurA/T288 (BioLegend), anti-Phospho-AurA/T288 (Cell Signaling), anti-HDAC6 rabbit polyclonal (Upstate; 1:5000), anti-HDAC2 rabbit polyclonal (Invitrogen) and mAb anti-β-actin (AC15, Sigma), anti-IFT88 and anti-IFT20. Secondary horseradish peroxidase (HRP)-conjugated antibodies were from Amersham Biotech.

[5] = biological target: AurB (Homo sapiens, UniProt Q96GD4); conditions: cited from earlier work
AurB, sequence (Q96GD4 whole entry): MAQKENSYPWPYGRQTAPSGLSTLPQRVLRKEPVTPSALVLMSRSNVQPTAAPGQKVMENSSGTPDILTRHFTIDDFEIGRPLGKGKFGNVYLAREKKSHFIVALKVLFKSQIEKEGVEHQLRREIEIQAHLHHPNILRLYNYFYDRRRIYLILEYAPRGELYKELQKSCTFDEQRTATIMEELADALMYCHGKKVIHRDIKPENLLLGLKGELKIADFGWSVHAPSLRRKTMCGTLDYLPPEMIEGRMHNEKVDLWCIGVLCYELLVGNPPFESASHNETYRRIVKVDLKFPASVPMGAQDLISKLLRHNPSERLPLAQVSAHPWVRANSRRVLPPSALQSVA

FGFR1, sequence (P11362 22-822, species assumed): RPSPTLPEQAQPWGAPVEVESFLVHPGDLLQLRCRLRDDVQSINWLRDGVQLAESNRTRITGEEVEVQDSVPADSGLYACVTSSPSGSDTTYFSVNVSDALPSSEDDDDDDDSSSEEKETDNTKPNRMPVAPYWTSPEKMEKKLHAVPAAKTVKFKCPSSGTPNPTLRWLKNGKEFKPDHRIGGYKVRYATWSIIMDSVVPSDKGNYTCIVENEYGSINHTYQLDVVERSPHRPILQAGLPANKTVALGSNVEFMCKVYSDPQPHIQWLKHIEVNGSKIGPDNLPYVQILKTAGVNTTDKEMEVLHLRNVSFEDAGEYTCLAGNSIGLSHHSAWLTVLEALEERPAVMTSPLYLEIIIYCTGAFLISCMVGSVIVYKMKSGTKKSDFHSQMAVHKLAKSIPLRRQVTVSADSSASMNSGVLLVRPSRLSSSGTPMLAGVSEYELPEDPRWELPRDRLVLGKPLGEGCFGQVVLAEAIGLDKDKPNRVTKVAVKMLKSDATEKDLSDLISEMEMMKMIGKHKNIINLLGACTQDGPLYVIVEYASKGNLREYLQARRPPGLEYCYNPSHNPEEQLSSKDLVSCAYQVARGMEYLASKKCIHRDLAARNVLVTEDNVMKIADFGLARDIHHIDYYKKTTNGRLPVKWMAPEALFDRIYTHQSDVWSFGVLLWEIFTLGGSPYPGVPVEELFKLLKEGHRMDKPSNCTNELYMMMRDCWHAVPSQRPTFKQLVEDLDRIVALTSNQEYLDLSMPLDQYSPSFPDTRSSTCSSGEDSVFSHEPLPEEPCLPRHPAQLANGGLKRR

HEF1 phosphorylation (115 kDa form) [3]: blocks
appearance of T288-phospho-AurA [3]: blocks appearance
AurA-HDAC6 coimmunoprecipitation [4]: not eliminated
SMILES: CCc1cccc(CC)c1NC(=O)N1Cc2n[nH]c(NC(=O)c3ccc(N4CCN(C)CC4)cc3)c2C1 [PHA-680632]
pIC50 [1]: 6.41
second wave of ciliary disassembly, at the time of mitosis ([2]; 500 nM, 18-24 hours after serum): completely eliminated
disassembly of cilia after serum stimulation ([2]; cells pre-treated for 3 hours with 500 nM, tracked 24 hours post serum): strongly reduced
pIC50 [5]: 6.73
